Results reported in US6821970B2, “Oxazinocarbazoles for the treatment of CNS diseases” (Pharmacia & Upjohn Company, priority 1999, dated 2004).
Counter-ions that a name gives are not always drawn.

Tests used:
[1] = target: T1, cloned human 5-HT6 receptor (Homo sapiens, UniProt P50406); assay: 5-HT6 receptor binding assay ([3H]-LSD radioligand, SPA beads); details: membranes of Hela cells containing cloned human 5-HT6 receptor, IC50 converted by Cheng-Prusoff
T1 construct: host or cells: HeLa cells (G-418 selected); membrane preparation
Experimental: 5-HT6 Receport Binding Assay
Growth of Cells and Membrane Preparation
Hela cells containing the cloned human 5-HT6 receptor were acquired from Dr. David R. Sibley's laboratory in National Institute of Health (see Sibley, D. R., J. Neurochemistry, 66, 47-56, 1996). Cells were grown in high glucose Dulbecco's modified Eagle's medium, supplemented with L-glutamine, 0.5% sodium pyruvate, 0.3% penicillin-streptomycin, 0.025% G-418 and 5% Gibco fetal bovine serum and then were harvested, when confluent, in cold phosphate buffered saline.
Harvested intact cells were washed once in cold phosphate-buffered saline. The cells were pelleted and resuspended in 100 ml of cold 50 mM Tris, 5 mM EDTA and 5 mM EGTA, pH 7.4. Homogenization was with a Vir Tishear generator, 4 cycles for 30 seconds each at setting 50. The homogenized cells were centrifuged at […] for 10 minutes and the supernatant was removed. The pellet was resuspended in 100 ml of the above buffer and rehomogenized for 2 cycles. The rehomogenized cells were then centrifuged at […] for 10 minutes and the supernatant was removed. The combined supernatant (200 ml) was centrifuged at 23,000 RPM (80,000×g) for 1 hour in a Beckman Rotor (42.1 Ti). The membrane pellet was resupended in 50-8-ml of assay buffer containing HEPES 20 mM, MgCl2 10 mM, NaCl 150 mM, EDTA 1 mM, pH 7.4 and stored frozen in aliqouts at −70° C.
5-HT6 Receptor Binding Assay
The radioligand binding assay used [^3H]-lysergic acid diethylamide (LSD). The assay was carried out in Wallac 96-well sample plates by the addition of 11 μl of the test sample at the appropriate dilution (the assay employed 11 serial concentrations of samples run in duplicate), 11 μl of radioligand, and 178 μl of a washed mixture of WGA-coated SPA beads and membranes in binding buffer. The plates were shaken for about 5 minutes and then incubated at room temperature for 1 hour. The plates were then loaded into counting cassettes and counted in a Wallac MicroBeta Trilux scintillation counter.
Binding Constant (Ki) Determination
Eleven serial dilutions of test compounds were distributed to assay plates using the PE/Cetus Pro/Pette pipetter. These dilutions were, followed by radioligand and the bead-membrane mixture prepared as described above. The specifically bound cpm obtained were fit to a one-site binding model using GraphPad Prism ver. 2.0. Estimated IC50 values were converted to Ki values using the Cheng-Prusoff equation (Cheng, Y. C. et al., Biochem. Pharmacol., 22, 3099-108, 1973).

T1 sequence (P50406 whole entry): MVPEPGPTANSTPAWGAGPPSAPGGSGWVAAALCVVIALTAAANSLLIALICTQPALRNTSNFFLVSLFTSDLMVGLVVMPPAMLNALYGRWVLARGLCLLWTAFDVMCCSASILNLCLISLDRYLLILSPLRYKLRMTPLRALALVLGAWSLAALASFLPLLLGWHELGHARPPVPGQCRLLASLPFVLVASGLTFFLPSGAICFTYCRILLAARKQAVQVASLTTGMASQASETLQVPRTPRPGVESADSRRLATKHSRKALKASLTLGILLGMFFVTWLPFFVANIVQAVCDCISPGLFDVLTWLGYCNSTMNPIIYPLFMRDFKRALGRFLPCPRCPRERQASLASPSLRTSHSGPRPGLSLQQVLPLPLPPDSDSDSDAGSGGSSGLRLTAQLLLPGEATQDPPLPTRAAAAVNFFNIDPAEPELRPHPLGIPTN

Row | Structure (SMILES) | melting point | Ki [1]
1 | NCCOc1cccc2c1c1cccc3c1n2[C@@H](c1ccccc1)CO3 [Example 1, (S)-(+)-[(1-Phenyl-1,2-dihydro[1,4]oxazino[2,3,4-jk]carbazol-7-yl)oxy]ethanamine] |  | 76 nM
2 | CS(=O)(=O)O.NCCOc1cccc2c1c1cccc3c1n2[C@H](c1ccccc1)CO3 [Example 2, (R)-(−)-[(1-Phenyl-1,2-dihydro[1,4]oxazino[2,3,4-jk]carbazol-7-yl)oxy]ethanamine] | 236 °C | 
3 | NCCOc1cccc2c1c1cccc3c1n2C(c1ccccc1)CO3 (centres unmarked) [Example 4, [(1-Phenyl-1,2-dihydro[1,4]oxazino[2,3,4-jk]carbazol-7-yl)oxy]ethanamine] |  | 1.7 nM
4 | CCNCCOc1cccc2c1c1cccc3c1n2C(c1ccccc1)CO3.O=C(O)/C=C\C(=O)O (centres unmarked) [Example 6, N-Ethyl-2-[(1-phenyl-1,2-dihydro[1,4]oxazino[2,3,4-jk]carbazol-7-yl)oxy]-1-ethanamine] | 105 °C | 2.7 nM
5 | O=CNCCOc1cccc2c1c1cccc3c1n2C(c1ccccc1)CO3 (centres unmarked) [Example 7, 2-[(1-Phenyl-1,2-dihydro[1,4]oxazino[2,3,4-jk]carbazol-7-yl)oxy]ethylformamide] |  | 39 nM
6 | NCCOc1c(Cl)ccc2c1c1cccc3c1n2C(c1ccccc1)CO3 (centres unmarked) [Example 9, 2-[(8-Chloro-1-phenyl-1,2-dihydro[1,4]oxazino[2,3,4-jk]carbazol-7-yl)oxy]-1-ethanamine] |  | 5.8 nM
7 | CCNCCOc1cccc2c1c1cc(C)cc3c1n2C(c1ccccc1)CO3 (centres unmarked) [Example 11, N-Ethyl-2-[(5-methyl-1-phenyl-1,2-dihydro[1,4]oxazino[2,3,4-jk]carbazol-7-yl)oxy]-1-ethanamine] |  | 5.3 nM
8 | CC(C)(C)OC(=O)N1CCN(CCOc2cccc3c2c2cccc4c2n3C(c2ccccc2)CO4)CC1 (centres unmarked) [Example 12, tert-Butyl 4-{2-[(1-phenyl-1,2-dihydro[1,4]oxazino[2,3,4-jk]carbazol-7-yl)oxy]ethyl}-1-piperazinecarboxylate] | 72 °C | 35 nM
9 | c1ccc(C2COc3cccc4c5c(OCCN6CCNCC6)cccc5n2c34)cc1 (centres unmarked) [Example 13, 1-Phenyl-1,2-dihydro[1,4]oxazino[2,3,4-jk]carbazol-7-yl 2-(1-piperazinyl)ethyl Ether] | 72 °C | 57 nM
10 | CN1CCN(CCOc2cccc3c2c2cccc4c2n3C(c2ccccc2)CO4)CC1 (centres unmarked) [Example 14, 2-(4-Methyl-1-piperazinyl)ethyl 1-phenyl-1,2-ihydro[1,4]oxazino [2,3,4-jk]carbazol-7-yl Ether] | 57 °C | 6.9 nM
11 | c1ccc(C2COc3cccc4c5c(OCCN6CCOCC6)cccc5n2c34)cc1 (centres unmarked) [Example 15, 2-(4-Morpholinyl)ethyl 1-phenyl-1,2-dihydro[1,4]oxazino[2,3,4-jk]carbazol-7-yl Ether] |  | 97 nM
12 | c1ccc(C2COc3cccc4c5c(OCCN6CCCCC6)cccc5n2c34)cc1 (centres unmarked) [Example 16, 1-Phenyl-1,2-dihydro[1,4]oxazino[2,3,4-jk]carbazol-7-yl 2-(1-piperidinyl)ethyl Ether] |  | 5 nM
13 | OCCNCCOc1cccc2c1c1cccc3c1n2C(c1ccccc1)CO3 (centres unmarked) [Example 17, 2-({2-[(1-Phenyl-1,2-dihydro[1,4]oxazino[2,3,4-jk]carbazol-7-yl)oxy]ethyl}amino)-1-ethanol] |  | 1.1 nM
14 | Cc1cc2c3c(c1)c1c(OCCN)cccc1n3C(c1ccccc1)CO2 (centres unmarked) [Example 19, 2-[(5-Methyl-1-phenyl-1,2-dihydro[1,4]oxazino[2,3,4-jk]carbazol-7-yl)oxy]-1-ethanamine] |  | 8 nM

The next lines start with the values.

Row | melting point | Ki [1] | Structure (SMILES)
15 | 105 to 107 °C |  | CCN(CC)CCOc1cccc2c1c1cccc3c1n2C(c1ccccc1)CO3 (centres unmarked) (as salt: maleic acid salt) [Example 3, N,N-Diethyl-2-[(1-phenyl-1,2-dihydro[1,4]oxazino[2,3,4-jk]carbazol-7-yl)oxy]-1-ethanamine]
16 |  | 7.6 nM | CCN(CC)CCOc1cccc2c1c1cccc3c1n2C(c1ccccc1)CO3 (centres unmarked) [Example 3, N,N-Diethyl-2-[(1-phenyl-1,2-dihydro[1,4]oxazino[2,3,4-jk]carbazol-7-yl)oxy]-1-ethanamine]
17 |  | 2 nM | CNCCOc1cccc2c1c1cccc3c1n2C(c1ccccc1)CO3 (centres unmarked) [Example 8, N-Methyl-2-[(1-phenyl-1,2-dihydro[1,4]oxazino[2,3,4-jk]carbazol-7-yl)oxy]-1-ethanamine]
18 | 117 to 118 °C | 3.3 nM | CN(C)CCOc1cccc2c1c1cccc3c1n2C(c1ccccc1)CO3 (centres unmarked) [Example 18, N,N-dimethyl-2-[(1-phenyl-1,2-dihydro[1,4]oxazino[2,3,4-jk]carbazol-7-yl)oxy]-1-ethanamine]
19 |  | 28 nM | CCN(CC)CCCCOc1cccc2c1c1cccc3c1n2C(c1ccccc1)CO3 (centres unmarked) [Example 20, N,N-Diethyl-N-{4-[(1-phenyl-1,2-dihydro[1,4]oxazino[2,3,4-jk]carbazol-7-yl)oxy]butyl}amine]
20 |  | 19 nM | CCN(CC)CCCOc1cccc2c1c1cccc3c1n2C(c1ccccc1)CO3 (centres unmarked) [Example 21, N,N-Diethyl-N-{3-[(1-phenyl-1,2-dihydro[1,4]oxazino[2,3,4-jk]carbazol-7-yl)oxy]propyl}amine]
21 |  | 3 nM | OCCNCCOc1cccc2c1c1cccc3c1n2[C@H](c1ccccc1)CO3 [Example 22, [(2-{[(1R)-1-Phenyl-1,2-dihydro[1,4]oxazino[2,3,4-jk]carbazol-7-yl]oxy}ethyl)amino]ethanol]
